# Data published in patent US20120316199A1, “COMPOSITIONS AND METHODS FOR TREATING, CONTROLLING, REDUCING, OR AMELIORATING INFLAMMATORY PAIN” (priority 2011, published 2012).
# Test system: intraocular pressure (IOP)
# Assay: Intraocular pressure in New Zealand White rabbits, topical dosing four times daily
# Type: in vivo
# Details: untreated left eyes
# Method: On Days 1-31, animals received daily topical doses of the appropriate test article into the right eye. Animals were dosed four times per day, with doses administered 2 hours apart. Doses were administered using a calibrated 50-μL pipette. The eyelids were held close for 10 seconds immediately following dosing. The time of each dose administration was recorded.
# Intraocular pressure (“IOP”) was determined for both eyes of each animal on Days 3, 5, 10, 12, 16, 18, 22, 24, 26, 30, and 32. IOP was evaluated with a Medtronic Solan, Model 30 classic pneumatonometer. Proparacaine hydrochloride 0.5% (1 drop) was delivered to each eye prior to IOP measurement. IOP was measured on Monday. Wednesday, and Friday of each week. A two-point diurnal curve was established: IOP was recorded at 8 a.m. and 12 p.m. on Day 3, and at 8 a.m. and 2 p.m. on later days, with a ±1 hour range for each of these times. The time of the measurements was recorded.
# Descriptive statistics were prepared for IOP data of each treatment group (left and right eyes separately) at each measurement interval. The statistics included the number of observations (“N”) mean, standard deviation (“STD”), and standard error (“SEM”). Statistical analyses were conducted on IOP results using Statistical Analysis Systems (SAS Institute. Inc., Cary, N.C. V8.0). Parameters were evaluated using analysis of variance/GLM Procedure followed by Tukey's Standardized Range Test (Tukey, 1985) for post hoc comparisons of group means. The level of significance was set at a probability of p<0.05 for all statistical procedures. Group IOP means were compared at each interval, with left and right eyes compared separately.
compound,measurement,setting,value
"Cc1ccc2c(NC[C@](O)(CC(C)(C)c3cc(F)cc4c3OCC4)C(F)(F)F)cccc2n1 [BOL-303242-X, mapracorat]","Intraocular Pressure, MEAN","A.M. readings, Day 16, 1 mg/g (Group D)",21.6 mmHg
same,"Intraocular Pressure, MEAN","A.M. readings, Day 16, 5 mg/g (Group C)",23.4 mmHg
same,"Intraocular Pressure, MEAN","A.M. readings, Day 16, 10 mg/g (Group B)",22.9 mmHg
same,"Intraocular Pressure, MEAN","A.M. readings, Day 18, 1 mg/g (Group D)",23.3 mmHg
same,"Intraocular Pressure, MEAN","A.M. readings, Day 18, 5 mg/g (Group C)",21.9 mmHg
same,"Intraocular Pressure, MEAN","A.M. readings, Day 18, 10 mg/g (Group B)",21.2 mmHg
same,"Intraocular Pressure, MEAN","A.M. readings, Day 22, 1 mg/g (Group D)",22.4 mmHg
same,"Intraocular Pressure, MEAN","A.M. readings, Day 22, 5 mg/g (Group C)",21.6 mmHg
same,"Intraocular Pressure, MEAN","A.M. readings, Day 22, 10 mg/g (Group B)",21.8 mmHg
same,"Intraocular Pressure, MEAN","A.M. readings, Day 24, 1 mg/g (Group D)",22.4 mmHg
same,"Intraocular Pressure, MEAN","A.M. readings, Day 24, 5 mg/g (Group C)",22.1 mmHg
same,"Intraocular Pressure, MEAN","A.M. readings, Day 24, 10 mg/g (Group B)",20.2 mmHg
same,"Intraocular Pressure, MEAN","A.M. readings, Day 26, 1 mg/g (Group D)",22.9 mmHg
same,"Intraocular Pressure, MEAN","A.M. readings, Day 26, 5 mg/g (Group C)",21.7 mmHg
same,"Intraocular Pressure, MEAN","A.M. readings, Day 26, 10 mg/g (Group B)",21.7 mmHg
same,"Intraocular Pressure, MEAN","A.M. readings, Day 30, 1 mg/g (Group D)",23.4 mmHg
same,"Intraocular Pressure, MEAN","A.M. readings, Day 30, 5 mg/g (Group C)",22.6 mmHg
same,"Intraocular Pressure, MEAN","A.M. readings, Day 30, 10 mg/g (Group B)",22.7 mmHg
same,"Intraocular Pressure, MEAN","A.M. readings, Day 32, 1 mg/g (Group D)",24.1 mmHg
same,"Intraocular Pressure, MEAN","A.M. readings, Day 32, 5 mg/g (Group C)",23.1 mmHg
same,"Intraocular Pressure, MEAN","A.M. readings, Day 32, 10 mg/g (Group B)",22.9 mmHg
same,"Intraocular Pressure, MEAN","A.M. readings, Pre-Study, 1 mg/g (Group D)",23.9 mmHg
same,"Intraocular Pressure, MEAN","A.M. readings, Pre-Study, 5 mg/g (Group C)",24.2 mmHg
same,"Intraocular Pressure, MEAN","A.M. readings, Pre-Study, 10 mg/g (Group B)",23.8 mmHg
same,"Intraocular Pressure, MEAN","P.M. readings, Day 3, 1 mg/g (Group D)",25.0 mmHg
same,"Intraocular Pressure, MEAN","P.M. readings, Day 3, 5 mg/g (Group C)",23.9 mmHg
same,"Intraocular Pressure, MEAN","P.M. readings, Day 3, 10 mg/g (Group B)",23.3 mmHg
same,"Intraocular Pressure, MEAN","P.M. readings, Day 5, 1 mg/g (Group D)",24.7 mmHg
same,"Intraocular Pressure, MEAN","P.M. readings, Day 5, 5 mg/g (Group C)",24.8 mmHg
same,"Intraocular Pressure, MEAN","P.M. readings, Day 5, 10 mg/g (Group B)",25.2 mmHg
same,"Intraocular Pressure, MEAN","P.M. readings, Day 10, 1 mg/g (Group D)",24.9 mmHg
same,"Intraocular Pressure, MEAN","P.M. readings, Day 10, 5 mg/g (Group C)",24.6 mmHg
same,"Intraocular Pressure, MEAN","P.M. readings, Day 10, 10 mg/g (Group B)",23.5 mmHg
same,"Intraocular Pressure, MEAN","P.M. readings, Day 12, 1 mg/g (Group D)",23.7 mmHg
same,"Intraocular Pressure, MEAN","P.M. readings, Day 12, 5 mg/g (Group C)",23.3 mmHg
same,"Intraocular Pressure, MEAN","P.M. readings, Day 12, 10 mg/g (Group B)",24.1 mmHg
same,"Intraocular Pressure, MEAN","P.M. readings, Day 16, 1 mg/g (Group D)",21.9 mmHg
same,"Intraocular Pressure, MEAN","P.M. readings, Day 16, 5 mg/g (Group C)",20.4 mmHg
same,"Intraocular Pressure, MEAN","P.M. readings, Day 16, 10 mg/g (Group B)",21.4 mmHg
same,"Intraocular Pressure, MEAN","P.M. readings, Day 18, 1 mg/g (Group D)",22.7 mmHg
same,"Intraocular Pressure, MEAN","P.M. readings, Day 18, 5 mg/g (Group C)",21.9 mmHg
same,"Intraocular Pressure, MEAN","P.M. readings, Day 18, 10 mg/g (Group B)",22.1 mmHg
same,"Intraocular Pressure, MEAN","P.M. readings, Day 22, 1 mg/g (Group D)",22.1 mmHg
same,"Intraocular Pressure, MEAN","P.M. readings, Day 22, 5 mg/g (Group C)",22.1 mmHg
same,"Intraocular Pressure, MEAN","P.M. readings, Day 22, 10 mg/g (Group B)",22.6 mmHg
same,"Intraocular Pressure, MEAN","P.M. readings, Day 24, 1 mg/g (Group D)",22.9 mmHg
same,"Intraocular Pressure, MEAN","P.M. readings, Day 24, 5 mg/g (Group C)",22.2 mmHg
same,"Intraocular Pressure, MEAN","P.M. readings, Day 24, 10 mg/g (Group B)",22.8 mmHg
same,"Intraocular Pressure, MEAN","P.M. readings, Day 26, 1 mg/g (Group D)",22.1 mmHg
same,"Intraocular Pressure, MEAN","P.M. readings, Day 26, 5 mg/g (Group C)",22.3 mmHg
same,"Intraocular Pressure, MEAN","P.M. readings, Day 26, 10 mg/g (Group B)",21.4 mmHg
same,"Intraocular Pressure, MEAN","P.M. readings, Day 30, 10 mg/g (Group B)",21.7 mmHg
